The results in this text go back to patent US10266520B2, “Bisamidinium-based inhibitors for the treatment of myotonic dystrophy” (The Board of Trustees of the University of Illinois, priority 2014, dated 2019).

In data set [1] the test system is MBNL1-rCUG^exp nuclear foci. The data set can be described thus: Nuclear foci quantification with endogenous MBNL1 (immunofluorescence) in DM1 model cells. It counts as cell-based. Conditions: 48 h. As to the method:
FIG. 2A-C. (a) Representative confocal microscope images showing the GFP-MBNL-rCUG^exp foci disruption by compounds 1a and 2a. (b) Percent of foci area per cell after treatment of ligands for 48 h. The sequestration and dispersion of endogenous MBNL under the treatment of ligand are quantitatively measured. Error bars represent standard errors of mean from at least four independent experiments, two-tail t-test *P<0.005. Note: This was a head-to-head comparison between compounds 1a and 2a. […] The difference is attributed to variability in cells and conditions. (c) Cytotoxicity profile of compound 2a.
In addition, a parallel experiment using endogenous MBNL1 in place of GFP-MBNL1 was conducted to quantify foci reduction in a model that more closely resembles DM1 patient cells. The endogenous MBNL1 was detected by an immunofluorescence technique (Alexa Fluor® 488 dye-labeled antibody) (Wong et al., J. Am. Chem. Soc. 2014, 136, 6355-6361). […] Incubation of 2a at 10 μM decreased the foci area to ca. 36%, but a similar level was also observed for the 100 μM treatment. It is encouraging that dimeric ligand 2a is as active at 1 μM as monomeric ligand 1a is at 100 μM. However, the lack of an obvious dose dependence and failure to fully dissolved nuclear foci at 100 μM may indicate a cellular penetration issue for 2a. Further study is underway.
ITC, EMSA, confocal microscopy, IR splicing, and the reversal of rough-eye phenotype assays were conducted as previously described (Wong et al., J. Am. Chem. Soc. 2014, 136, 6355-6361). The cytotoxicity of 2a was accessed using a published protocol (Vichai et al., Sulforhodamine B colorimetric assay for cytotoxicity screening, Nat. Protoc. 2006, 1, 1112-1116).

For data set [2], the system named is Drosophila flies (gmr-GAL4>UAS-i(CTG)480; CTG60 control). Put plainly: Rough eye phenotype in DM1 Drosophila model. It counts as in vivo. Conditions: for eye structure of control flies: 400 μM, CTG60 Drosophila flies. On the procedure: FIG. 4A-C. Efficacy of 1a and 2a in DM1 Drosophilia fly mode. (a) Improvement in adult rough eye phenotype. Each experiment was conducted in triplicate. (b) Effect of ligands on the control Drosophilia larvae (24B−GAL4>UAS−(CTG)60). (c) Dose-dependent effect of ligands on the DM1 larvae (24B−GAL4>UAS−i(CTG)480). Each experiment was conducted in triplicate, 10 individual larvae for each trial. Error bars represent standard deviation, two tail t-test *P<0.05, **P<0.01, ***P<0.001.
Drosophila lines were cultured in standard cornmeal medium supplemented with dry yeasts. Fly lines bearing UAS-(CTG)60 and UAS-(CTG)480 were kind gifts of Prof. Rubén Artero Allepuz (Universitate de València, Estudi General, Spain). The gmr-GAL4 and […] lines were used to drive UAS transgene expression in eye and muscles respectively. Ligands 1a and 2a were dissolved in ddH2O and mixed with fly food. Genetic crosses were set up in drug-containing fly food at 21.5° C. for external eye assay, and at 25° C. for larval crawling assay.

A further data set has as its system MBNL1-(CUG)16 complex. Put plainly: EMSA inhibition of the MBNL1-(CUG)16 complex. It counts as biochemical. Conditions: for Ki: KI=IC50×KD/[protein]total, read-out: KI, apparent inhibition constant, MBNL1-(CUG)16 complex. On the procedure: FIG. 1A-B. Determination of inhibition constants, KI, by EMSA. (a) Representative gels showing the release of (CUG)16 at different ligand concentrations. Top band is the MBNL1-(CUG)16 complex, the bottom band is the free (CUG)16. (b) IC50 values were obtained by plotting the RNA fraction bound versus ligand concentrations. The apparent inhibition constant (KI) was calculated using the equation: KI=IC50×KD/[protein]total, where KD is the dissociation constant of the MBNL1-RNA complex and [protein] is at least 7-fold greater than the KD. Error bars represent standard deviation of three independent experiments.
An electrophoretic mobility shift assay (EMSA) was employed to determine the in vitro inhibition of MBNL1-rCUG^exp complex by monomer 1a and dimers 2a-b (FIG. 1). This study used (CUG)16, which can form a hairpin structure containing a maximum of 8 U-U mismatches. […] Likely, a 1:1 complex was formed. In this study, a truncated MBNL1 (1-272 amino acids) containing four zinc finger motifs of MBNL1 and a hexahistidine tag (C-terminus) was employed. This MBNL1 construct and the full-length MBNL1 have the similar affinities to rCUG repeats.
To determine the inhibition constant of bivalent ligands 2a and 2b, the MBNL1-(CUG)16 mixture, in which ca. 50% of the RNA is free, was incubated with various concentrations of ligand (FIG. 1a). The dimer concentrations were not raised to higher than 10 μM due to the aggregation on the gel at high concentrations. As the concentration of ligand increased, more RNA was released from the complex with MBNL protein. By fitting the plot of bound RNA fractions versus ligand concentrations with an appropriate equation, the IC50 value was determined (FIG. 1b).
(CUG)16 RNA was labeled with [γ-^32P]-ATP using T4 poly-nucleotide kinase (New England Biolabs). Labeled RNA was purified by phenol extraction and ethanol precipitation. Labeled RNA was heated at 95° C. for 5 min, then placed on ice for 10 min and diluted in protein binding buffer (175 mM NaCl, 5 mM MgCl2, 20 mM Tris-HCl (pH 8), 1.25 mM 2-mercapto-ethanol (BME), 12.5% glycerol, 2 mg/ml bovine serum albumin (BSA), 0.1 mg/ml heparin, 0.05% or 0.1% Triton X). For MBNL1-(CUG)16 binding study, MBNL1 was serially diluted by a factor of 3 in protein binding buffer. To each solution was added labeled RNA, so that the final concentration of RNA was 0.2 nM. The resulting mixtures were incubated at room temperature for 10 min and loaded onto a 6% polyacrylamide gel (80:1) at 4° C. The gel was run for 2 h at 180 V in Tris-Borate 0.5× buffer (pH 8.2-8.3). Gels were dried at 80° C. under high vacuum for 2 h, developed overnight in phosphor exposure cassette, and visualized on a Molecular Dynamics Storm PhosphorImager. The KD (1:1 stoichiometry assumption) was obtained by fitting the normalized fraction RNA bound versus the concentration of protein using the equation: Fraction RNA bound=Bmax×[MBNL1]total^h/(KD^h+MBNL1]total^h) where Bmax is maximum fraction RNA bound, h is a Hill slope. Protein concentration in reaction mixture was larger than 10-fold excess over RNA concentration. Data is illustrated in FIGS. 6 and 7.
A general note: A gel shift assay detects complexes by their altered migration in electrophoresis.

Usually IC50 stands for the concentration at which inhibition is half-maximal. Low values mean inhibition by little substance, high ones a need for much substance.

Take `N=C(NCCCCNc1nc(N)nc(N)n1)c1ccc(C(=N)NCCCCNc2nc(N)nc(NCCCn3cc(CNc4nc(N)nc(NCCCCNC(=N)c5ccc(C(=N)NCCCCNc6nc(N)nc(N)n6)cc5)n4)nn3)n2)cc1` [Compound 2a]: the “nuclear foci remained after treatment” value in data set [1] (1 μM) is given as “approximately 72%”. The “foci area after treatment” value in data set [1] (10 μM) was “ca. 36%”. Moreover, the rough eye phenotype result in data set [2] (50 μM in fly food, gmr-GAL4>UAS-i(CTG)480 flies) is on record as “partial reversal of rough eye phenotypes”. Also, the “eye structure of control flies” value in data set [2] is “did not change the fly's eye structure”. For the same compound, the “inhibitory power toward the MBNL1-rCUG^exp interaction relative to compound 1a (fold greater)” value in the data set on MBNL1-(CUG)16 complex is “ca. 1000 fold”. Also, in the data set on MBNL1-(CUG)16 complex (EMSA), 0.29 ± 0.03 µM corresponded to half-maximal inhibition (IC50) and the Ki turned out to be 0.025 ± 0.008 µM.
Turning to `N=C(NCCCCNc1nc(N)nc(N)n1)c1ccc(C(=N)NCCCCNc2nc(N)nc(N)n2)cc1` [Compound 1a], the “nuclear foci remaining / foci area” value in data set [1] (100 μM) is “ca. 90%”. The “eye structure of control flies” value in data set [2] is recorded as “did not change the fly's eye structure”. For the same compound, in the data set on MBNL1-(CUG)16 complex (EMSA), the IC50 worked out at 189 ± 33 µM and the Ki was found to be 16 ± 6 µM. Moreover, the “KI of 1a relative to that for 2a and 2b (fold higher)” value at MBNL1-(CUG)16 complex (EMSA, identical conditions) is about 1000 fold.
